Active and inactive are the calls of the source. No cut-off for these calls is given here.
Columns and labels:
[1] = target: T1, P2X purinoceptor 7 (Homo sapiens) (UniProt Q99572); test: Antagonist activity at human P2X7 receptor expressed in HEK293 cells assessed as inhibition of ATP-induced receptor pore formation at 1 uM by propidium iodide dye uptake based fluorescence analysis; type: cell-based; conditions: filed as antagonist
T1 sequence (whole entry): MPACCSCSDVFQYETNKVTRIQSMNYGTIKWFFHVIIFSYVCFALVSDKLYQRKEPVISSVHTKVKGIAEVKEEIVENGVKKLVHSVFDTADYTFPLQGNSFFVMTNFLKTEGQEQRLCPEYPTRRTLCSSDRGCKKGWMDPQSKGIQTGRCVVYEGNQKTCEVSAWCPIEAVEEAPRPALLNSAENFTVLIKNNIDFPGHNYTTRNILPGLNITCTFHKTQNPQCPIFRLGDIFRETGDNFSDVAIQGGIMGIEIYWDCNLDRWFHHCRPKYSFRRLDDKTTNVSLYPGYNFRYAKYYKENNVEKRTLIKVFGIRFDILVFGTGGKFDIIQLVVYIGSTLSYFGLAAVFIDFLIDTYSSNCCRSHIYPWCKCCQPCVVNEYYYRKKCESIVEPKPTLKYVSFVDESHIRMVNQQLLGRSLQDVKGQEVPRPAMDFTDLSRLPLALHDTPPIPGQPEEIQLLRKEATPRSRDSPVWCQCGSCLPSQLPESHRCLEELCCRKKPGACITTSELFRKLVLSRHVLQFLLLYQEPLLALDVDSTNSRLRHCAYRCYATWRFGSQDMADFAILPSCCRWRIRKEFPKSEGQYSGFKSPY

P2X purinoceptor 7 = target: T2, P2X purinoceptor 7 (Homo sapiens, UniProt Q99572); test: Antagonist activity at human P2X7 receptor expressed in HEK293 cells assessed as inhibition of ATP-induced receptor pore formation by propidium iodide dye uptake based fluorescence analysis; type: cell-based
T2 sequence (Q99572 whole entry): T1 sequence (whole entry)

[2] = Half life in mouse liver microsomes; type: ADME, Microsome
HEK293 [3] = test: Cytotoxicity against human HEK293 cells transfected with human P2X7 receptor assessed as effect on cell viability at 1 to 4 uM incubated for 2 hrs by CCK8 assay; type: toxicity, cell-based; conditions: hek293, 2 h, dose 1-4 µM
HEK293 [4] = test: Cytotoxicity against human HEK293 cells transfected with mouse P2X7 receptor assessed as effect on cell viability at 1 to 4 uM incubated for 2 hrs by CCK8 assay; type: toxicity, cell-based; conditions: hek293, 2 h, dose 1-4 µM
[5] = Clearance in BALB/c mouse at 10 mg/kg, po measured for 24 hrs by LC-MS/MS analysis; type: ADME, organism-based; conditions: in vivo
[6] = Cmax in BALB/c mouse at 10 mg/kg, po measured for 24 hrs by LC-MS/MS analysis; type: ADME, organism-based; set-up: time 24 hrs, dose 10 mg/kg, route po; conditions: in vivo
[7] = Tmax in BALB/c mouse at 10 mg/kg, po measured for 24 hrs by LC-MS/MS analysis; type: ADME, organism-based; conditions: in vivo
[8] = Oral bioavailability in BALB/c mouse at 10 mg/kg measured for 24 hrs by LC-MS/MS analysis; type: ADME, organism-based; conditions: in vivo
[9] = Cmax in BALB/c mouse at 10 mg/kg, ip measured for 24 hrs by LC-MS/MS analysis; type: ADME, organism-based; set-up: dose 10 mg/kg, time 24 hrs, route ip; conditions: in vivo
[10] = Half life in BALB/c mouse at 10 mg/kg, ip measured for 24 hrs by LC-MS/MS analysis; type: ADME, organism-based; conditions: in vivo
Mus musculus [11] = test: Reno-protective activity against LPS-induced acute kidney injury C57BL/6J mouse model assessed as decrease in serum […] level at 10 mg/kg, ip administered twice at 30 mins prior to LPS challenge and 8 hrs post-LPS challenge and measured at 16 hrs post-LPS challenge; type: functional, organism-based; conditions: time 16.5 hrs
Cytochrome P450 2C19 = Cytochrome P450 2C19 (Homo sapiens, UniProt P33261); test: Inhibition of CYP2C19 in human liver microsomes using S-mephenytoin as substrate upto 100 uM incubated for 10 mins in presence of NADPH by LC-MS/MS analysis; type: ADME, Microsome
Chain of Cytochrome P450 2C19 (P33261 whole entry): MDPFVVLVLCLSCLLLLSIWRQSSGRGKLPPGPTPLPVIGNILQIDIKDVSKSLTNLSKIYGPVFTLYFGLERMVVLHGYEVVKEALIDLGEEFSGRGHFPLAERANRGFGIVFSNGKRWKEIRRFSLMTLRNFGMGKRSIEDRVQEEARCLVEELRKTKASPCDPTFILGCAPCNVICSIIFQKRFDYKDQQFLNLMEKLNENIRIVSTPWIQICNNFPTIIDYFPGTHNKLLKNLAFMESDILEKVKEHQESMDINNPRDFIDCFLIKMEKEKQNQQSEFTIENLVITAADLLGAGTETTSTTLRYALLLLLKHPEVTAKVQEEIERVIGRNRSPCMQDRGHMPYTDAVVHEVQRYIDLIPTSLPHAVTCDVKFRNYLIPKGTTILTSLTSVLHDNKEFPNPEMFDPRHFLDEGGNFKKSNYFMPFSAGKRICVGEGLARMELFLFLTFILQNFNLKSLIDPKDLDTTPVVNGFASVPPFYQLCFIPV

Cytochrome P450 2E1 = Cytochrome P450 2E1 (Homo sapiens, UniProt P05181); test: Inhibition of CYP2E1 in human liver microsomes using cholorzoxazone-as substrate upto 100 uM incubated for 10 mins in presence of NADPH by LC-MS/MS analysis; type: ADME, Microsome
Chain of Cytochrome P450 2E1 (P05181 whole entry): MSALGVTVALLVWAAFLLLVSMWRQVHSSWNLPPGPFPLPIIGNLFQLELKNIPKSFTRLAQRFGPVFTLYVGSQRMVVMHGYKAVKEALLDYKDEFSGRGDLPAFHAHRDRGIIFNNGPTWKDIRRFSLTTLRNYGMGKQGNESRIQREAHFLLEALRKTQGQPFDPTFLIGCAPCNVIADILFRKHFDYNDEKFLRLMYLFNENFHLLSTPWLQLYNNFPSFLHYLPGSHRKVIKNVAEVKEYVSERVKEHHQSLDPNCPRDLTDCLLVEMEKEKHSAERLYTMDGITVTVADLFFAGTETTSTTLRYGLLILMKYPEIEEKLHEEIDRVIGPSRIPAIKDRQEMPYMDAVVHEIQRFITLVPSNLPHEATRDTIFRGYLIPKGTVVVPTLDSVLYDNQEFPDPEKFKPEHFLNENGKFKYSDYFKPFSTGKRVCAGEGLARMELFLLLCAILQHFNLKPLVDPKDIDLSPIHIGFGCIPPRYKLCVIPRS

[12] = target: T1, P2X purinoceptor 7 (Homo sapiens); test: Antagonist activity at P2X7 receptor in human THP-1 cells assessed as inhibition of Bz-ATP-evoked channel current at 2 uM by whole-cell patch clamp analysis; type: cell-based; conditions: filed as antagonist
[13] = target: T1, P2X purinoceptor 7 (Homo sapiens); test: Antagonist activity at P2X7 receptor in human THP-1 cells assessed as inhibition of ATP-induced NLRP3 inflammasome activation at 0.1 to […] pretreated with LPS for 3 hrs followed by incubation with compound for 40 mins followed by treatment with ATP for 1 hr by western blot analysis; type: cell-based; conditions: filed as antagonist, dose 0.1-2.5 µM, time 100.0 min
[14] = Toxicity in C57BL/6J mouse assessed as pathological changes in heart at 20 mg/kg, ip administered twice at 0 hrs and 8 hrs and measured after 16 hrs by Hematoxylin-Eosin staining based analysis; type: organism-based; conditions: in vivo
[15] = Toxicity in C57BL/6J mouse assessed as pathological changes in spleen at 20 mg/kg, ip administered twice at 0 hrs and 8 hrs and measured after 16 hrs by Hematoxylin-Eosin staining based analysis; type: organism-based; conditions: in vivo
[16] = Toxicity in C57BL/6J mouse assessed as pathological changes in kidney at 20 mg/kg, ip administered twice at 0 hrs and 8 hrs and measured after 16 hrs by Hematoxylin-Eosin staining based analysis; type: organism-based; conditions: in vivo
[17] = Toxicity in C57BL/6J mouse assessed as pathological changes in testes at 20 mg/kg, ip administered twice at 0 hrs and 8 hrs and measured after 16 hrs by Hematoxylin-Eosin staining based analysis; type: organism-based; conditions: in vivo
Mus musculus [18] = test: Reno-protective activity against LPS-induced acute kidney injury C57BL/6J mouse model assessed as decrease in BUN level at 5 to 20 mg/kg, ip administered twice at 30 mins prior to LPS challenge and 8 hrs post-LPS challenge and measured at 16 hrs post-LPS challenge; type: functional, organism-based; conditions: dose 5-20 mg/kg, time 16.5 hrs
Mus musculus [19] = test: Reno-protective activity against LPS-induced acute kidney injury C57BL/6J mouse model assessed as decrease in NGAL mRNA expression in kidney at 5 to 20 mg/kg, ip administered twice at 30 mins prior to LPS challenge and 8 hrs post-LPS challenge and measured at 16 hrs post-LPS challenge by RT-qPCR analysis; type: functional, organism-based; conditions: dose 5-20 mg/kg, time 16.5 hrs
Mus musculus [20] = test: (§1) Reno-protective activity against CLP-induced acute kidney injury C57BL/6J mouse model assessed as decrease in Casp1 gene expression in kidney at 20 mg/kg, ip administered twice at 30 mins prior to CLP operation and 8 hrs post-CLP operation and measured at 16 hrs post-CLP operation by RNA sequencing analysis; type: functional, organism-based; conditions: time 16.5 hrs
Mus musculus [21] = test: as §1, with “Tnfa-gene” for “Casp1 gene”; type: functional, organism-based; conditions: time 16.5 hrs
Mus musculus [22] = test: as §1, with “NLRP3 mRNA” for “Casp1 gene”, “RT-qPCR” for “RNA sequencing”; type: functional, organism-based; conditions: time 16.5 hrs
Mus musculus [23] = test: as §1, with “caspase-1 mRNA” for “Casp1 gene”, “RT-qPCR” for “RNA sequencing”; type: functional, organism-based; conditions: time 16.5 hrs
Mus musculus [24] = test: as §1, with “IL-1 beta mRNA” for “Casp1 gene”, “RT-qPCR” for “RNA sequencing”; type: functional, organism-based; conditions: time 16.5 hrs

CS(=O)(=O)c1ccc(-c2nc(C(=O)NCc3cn(-c4cc(Br)ccn4)nn3)cs2)cc1
inhibition [1]: 112% | IC50 (P2X purinoceptor 7): 64.7 nM | half-life [2]: > 2 h | Activity (HEK293 [3]): Non-Toxic | Activity (HEK293 [4]): Non-Toxic | CL/F [5]: 25.8 mL/min/kg | Cmax [6]: 1300 ng/mL | Tmax [7]: 1.17 h | bioavailability [8]: 39.2% | Cmax [9]: 1070 ng/mL | half-life [10]: 6.12 h | Activity (Mus musculus [11]): Active | inhibition (INH) (Cytochrome P450 2C19): Not Active | inhibition (INH) (Cytochrome P450 2E1): Not Active | inhibition [12]: 56.1% | inhibition [13]: Active | Activity [14]: Non-Toxic | Activity [15]: Non-Toxic | Activity [16]: Non-Toxic | Activity [17]: Non-Toxic | Activity (Mus musculus [18]): Dose-Dependent Effect | Activity (Mus musculus [19]): Dose-Dependent Effect | Activity (Mus musculus [20]): Active | Activity (Mus musculus [21]): Active | Activity (Mus musculus [22]): Active | Activity (Mus musculus [23]): Active | Activity (Mus musculus [24]): Active

Source: ChEMBL document CHEMBL5360655, “Design, Synthesis, and Biological Evaluation of Novel P2X7 Receptor Antagonists for the Treatment of Septic Acute Kidney Injury” (J Med Chem, 2023)
